ChEMBL document CHEMBL5055668 (J Med Chem, 2021)
Activity calls are given as the source filed them. The rule behind the calls is not given here.

Key:
[1] = target: T1, Macrophage colony-stimulating factor 1 receptor (Mus musculus) (UniProt P09581); assay: Inhibition of CSF-1R signaling pathway in C57BL/6 mouse BMDM cells assessed as reduction in M-CSF induced CSF-1R phosphorylation at 100 nM preincubated for 12 hrs followed by M-CSF stimulation for 30 mins by Western blot analysis; assay type: cell-based
T1 sequence (whole entry): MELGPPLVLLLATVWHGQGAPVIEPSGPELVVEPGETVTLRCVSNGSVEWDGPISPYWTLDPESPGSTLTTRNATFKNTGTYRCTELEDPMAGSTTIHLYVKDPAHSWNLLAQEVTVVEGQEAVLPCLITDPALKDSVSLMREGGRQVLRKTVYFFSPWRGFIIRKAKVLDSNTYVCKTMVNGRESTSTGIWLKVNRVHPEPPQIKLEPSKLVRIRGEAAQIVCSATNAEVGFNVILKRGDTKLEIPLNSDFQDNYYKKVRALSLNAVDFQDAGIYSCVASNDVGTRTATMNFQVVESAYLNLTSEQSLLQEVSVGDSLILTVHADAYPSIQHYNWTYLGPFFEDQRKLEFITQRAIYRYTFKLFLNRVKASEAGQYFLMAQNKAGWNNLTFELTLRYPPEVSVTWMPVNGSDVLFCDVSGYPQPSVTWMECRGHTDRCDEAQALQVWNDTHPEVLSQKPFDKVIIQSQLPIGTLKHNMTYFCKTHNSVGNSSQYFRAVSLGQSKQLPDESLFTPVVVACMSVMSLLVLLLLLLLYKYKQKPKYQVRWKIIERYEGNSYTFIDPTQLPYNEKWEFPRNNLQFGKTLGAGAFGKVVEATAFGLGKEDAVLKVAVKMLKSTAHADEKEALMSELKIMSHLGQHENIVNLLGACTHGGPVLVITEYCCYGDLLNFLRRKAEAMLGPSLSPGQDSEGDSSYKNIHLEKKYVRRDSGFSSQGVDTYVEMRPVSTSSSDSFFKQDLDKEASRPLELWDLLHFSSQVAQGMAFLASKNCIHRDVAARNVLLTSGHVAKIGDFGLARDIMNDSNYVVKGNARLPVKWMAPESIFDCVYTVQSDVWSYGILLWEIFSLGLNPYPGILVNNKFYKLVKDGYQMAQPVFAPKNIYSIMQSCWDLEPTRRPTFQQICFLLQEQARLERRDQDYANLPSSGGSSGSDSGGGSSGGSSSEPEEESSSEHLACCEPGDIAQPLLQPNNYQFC

[2] = target: Macrophage colony-stimulating factor 1 receptor (Homo sapiens, UniProt P07333)
Macrophage colony-stimulating factor 1 receptor, sequence (P07333 whole entry): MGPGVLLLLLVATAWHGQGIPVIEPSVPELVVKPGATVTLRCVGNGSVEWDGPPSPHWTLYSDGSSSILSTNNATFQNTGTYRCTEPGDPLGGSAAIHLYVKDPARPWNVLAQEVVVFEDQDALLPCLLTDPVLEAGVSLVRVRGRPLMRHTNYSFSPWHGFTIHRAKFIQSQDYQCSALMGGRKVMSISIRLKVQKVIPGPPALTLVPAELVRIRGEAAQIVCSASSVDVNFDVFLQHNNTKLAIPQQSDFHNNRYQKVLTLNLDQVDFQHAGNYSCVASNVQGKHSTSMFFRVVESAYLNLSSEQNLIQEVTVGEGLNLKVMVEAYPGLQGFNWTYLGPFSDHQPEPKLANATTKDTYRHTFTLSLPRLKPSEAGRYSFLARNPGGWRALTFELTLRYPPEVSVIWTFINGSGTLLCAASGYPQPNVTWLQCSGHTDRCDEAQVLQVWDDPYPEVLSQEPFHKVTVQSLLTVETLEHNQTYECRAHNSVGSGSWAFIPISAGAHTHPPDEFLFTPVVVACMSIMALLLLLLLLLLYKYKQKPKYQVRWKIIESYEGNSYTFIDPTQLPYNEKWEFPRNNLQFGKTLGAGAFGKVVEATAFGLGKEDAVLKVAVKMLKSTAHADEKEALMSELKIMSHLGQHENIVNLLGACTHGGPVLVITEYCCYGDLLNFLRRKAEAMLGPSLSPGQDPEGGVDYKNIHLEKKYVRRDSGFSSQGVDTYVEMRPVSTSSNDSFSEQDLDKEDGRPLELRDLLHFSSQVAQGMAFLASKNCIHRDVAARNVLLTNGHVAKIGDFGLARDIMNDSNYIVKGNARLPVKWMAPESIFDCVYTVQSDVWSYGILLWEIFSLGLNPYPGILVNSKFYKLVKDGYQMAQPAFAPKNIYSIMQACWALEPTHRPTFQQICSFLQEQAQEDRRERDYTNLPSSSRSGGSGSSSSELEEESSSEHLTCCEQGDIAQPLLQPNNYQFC
Description: Inhibition of CSF1R (unknown origin) incubated for 30 mins in presence of ATP by mobility shift assay

MC-38 = assay: Antitumor activity against mouse MC38 cells allografted in C57BL6 mouse assessed as tumor growth inhibition at 20 mg/kg, po administered daily for 2 weeks by caliper method; details: MC-38, po, 336 h, read-out: TGI

| Structure (SMILES) | inhibition [1] | IC50 [2] | inhibition in vivo at 20 mg/kg (MC-38) |
| --- | --- | --- | --- |
| CCCNCCC(=O)Nc1c(C)[nH]c(/C=C2\C(=O)Nc3cc(NC(=O)Nc4cc(C(C)(C)C)on4)ccc32)c1C | Active | – | – |
| CCN(CC)CCNC(=O)c1c(C)[nH]c(/C=C2\C(=O)Nc3cc(NC(=O)NC4CCN(C)CC4)ccc32)c1C | – | > 3 µM | – |
| Cc1[nH]c(/C=C2\C(=O)Nc3cc(NC(=O)Nc4cc(C(C)(C)C)on4)ccc32)c(C)c1NC(=O)CCN1CCN(C)CC1 | Active | – | – |
| FC(F)(F)c1ccc(CNc2ccc(Cc3c[nH]c4ncc(Cl)cc34)cn2)cn1 [PEXIDARTINIB] | Active | – | 40.3% |
| Cc1[nH]c(/C=C2\C(=O)Nc3cc(NC(=O)Nc4cc(C(C)(C)C)on4)ccc32)c(C)c1NC(=O)CCN1CCCCC1 | Active | – | – |
| Cc1[nH]c(/C=C2\C(=O)Nc3cc(NC(=O)Nc4cc(C(C)(C)C)on4)ccc32)c(C)c1NC(=O)C1CCCNC1 (configuration not stated) | Active | – | – |
| Cc1[nH]c(/C=C2\C(=O)Nc3cc(NC(=O)Nc4cc(C(C)(C)C)on4)ccc32)c(C)c1NC(=O)C1CCCCN1 (configuration not stated) | Active | – | – |
| Cc1[nH]c(/C=C2\C(=O)Nc3cc(NC(=O)Nc4cc(C(C)(C)C)on4)ccc32)c(C)c1NC(=O)[C@@H]1CCNC1 | Active | – | – |
| CCNCCC(=O)Nc1c(C)[nH]c(/C=C2\C(=O)Nc3cc(NC(=O)Nc4cc(C(C)(C)C)on4)ccc32)c1C | Active | – | – |
| Cc1[nH]c(/C=C2\C(=O)Nc3cc(NC(=O)Nc4cc(C(C)(C)C)on4)ccc32)c(C)c1NC(=O)CCN1CCCC1 | Active | – | – |
| Cc1[nH]c(/C=C2\C(=O)Nc3cc(NC(=O)Nc4cc(C(C)(C)C)on4)ccc32)c(C)c1NC(=O)CCN(C)C | Active | – | – |
